Experimental data taken from patent US4024082A, “Analgesics” (priority 1975, dated 1977).

What was measured:
morphine analgesia = test: Antagonism of morphine analgesia, Haffner method; assay type: in vivo, male mice dd strain; conditions: morphine 16 mg/kg subcutaneously
Experimental: (§1) The dl-KMG-86, d-KMG-86 and l-KMG-86 were all screened for their biological activity by the assays described in the reference J. Med. Chem. 16, 301 (1973). All three compounds were screened for their analgesic activity by the acetic acid induced stretching method of R. Kosta, Fed. Proc., Fed. Amer. Soc. Exp. Biol., 18, 412 (1959). Male albino mice dd strain (18.0-22.0 g.) were used. After the compounds were administered subcutaneously to five groups of animals consisting of ten mice per group, the effective ratio until 60 minutes was examined and the effective dose in 50% of the mice (ED50) was calculated by the Lichfield-Wilcoxin method [J. T. Lichfield and F. Wilcoxin, J. Pharmacol., 96, 99 (1949)]. […] Med. Wochenschr., 55, 731 (1929)], in which ten male mice dd strain per group were used.

Side effects or toxicity = conditions: in vivo
[1] = test system: acetic acid induced stretching; test: Analgesic activity, acetic acid induced stretching method; assay type: in vivo, male albino mice dd strain; conditions: for ED50, Mean Value: 60 min
Experimental: as §1

[2] = Morphine analgesia (Haffner method); assay type: in vivo, male mice dd strain; conditions: subcutaneously
Experimental: as §1

[3] = J. Med. Chem. 16, 301 (1973); cited from earlier work
[4] = as described in U.S. Pat. No. 3,728,347; cited from earlier work
[5] = humans; cited from earlier work
[6] = as described in U.S. Pat. No. 3,728,347; cited from earlier work; remark: listed apart in the source
[7] = stretching method, subcutaneous, effective ratio until 60 minutes, Lichfield-Wilcoxin method

## Oc1ccc2c(c1)C13CCCCC1N(C2)N(CC1CC1)CC3 (stereo not drawn) [l-KMG-86, l-N-cyclopropylmethyl-3-hydroxy-9-azamorphinan]
Morphine analgesia
  Antagonist Dose (AD50): 2.20 mg/kg, S. C.
Side effects or toxicity
  side effects or toxicity: no substantial side effects or toxicity
[1]; from Table I ED50 (stretching method)
  potency of l-isomer relative to dl-mixture: about 3.5 fold
[1]; [7]
  ED50, Mean Value: 0.45 mg/kg

## CN1CC[C@]23c4c5ccc(O)c4O[C@H]2[C@@H](O)C=C[C@H]3[C@H]1C5 [morphine]
[2]
  ED100 of morphine: 16 mg/kg

## CC(C)=CCN1CCC2(C)c3cc(O)ccc3CC1C2C (centres unmarked) [Pentazocine, reference compound]
[1]; Mus musculus, sc, 1 h, stretching method, subcutaneous, effective ratio until 60 minutes, Lichfield-Wilcoxin method
  ED50: 2.4 mg/kg

## Oc1ccc2c(c1)C13CCCCC1N(C2)N(CC1CC1)CC3 (racemic) [dl-KMG-86, dl-N-cyclopropylmethyl-3-hydroxy-9-azamorphinan]
Morphine analgesia
  Antagonist Dose (AD50): 4.70 mg/kg, S. C.
[3]
  activity relative to pentazocine: about twice as active as pentazocine
[4]
  opiate dependence liability: lacking opiate dependence liability
[5]
  confirmation in clinical studies of the activity found in mice: The activity found in mice was confirmed in clinical studies in humans
[6]
  analgesic activity compared with morphine: remarkable analgesic activity as strong as that possessed by morphine
[1]; [7]
  ED50, Mean Value: 1.63 mg/kg

## Oc1ccc2c(c1)C13CCCCC1N(C2)N(CC1CC1)CC3 (stereo not drawn) [d-KMG-86, d-N-cyclopropylmethyl-3-hydroxy-9-azamorphinan]
Morphine analgesia
  Antagonist Dose (AD50): 20 mg/kg, S. C.
[1]; [7]
  ED50, Mean Value: ca. 80 mg/kg
